row,melting point [°C],SMILES
1,215 to 216,"CCCN(Nc1cccc(C(=N)N)c1)C(=O)Nc1ccc(-c2ccccc2S(N)(=O)=O)cc1 [Compound 1, 4′-[3-(3-amidinophenyl)-2-propylcarbazoylamino]biphenyl-2-sulfonamide]"
2,> 300,"CCCN(Nc1cccc(C(=N)N)c1)C(=O)NNc1ccc(-c2ccccc2S(C)(=O)=O)cc1 [Compound 15, 1-(3-amidinophenyl)-4-(2′-methylsulfonylbiphenyl-4-ylamino)-2-propylsemicarbazide]"
